“Also recorded” adds a separate entry of the source.
Key:
HCT-116, MCF-7 and HeLa = test: MTT cytotoxicity, summary statements on all tested tumor cell lines together; format: cell-based, human; details: MTT 72 h
Procedure: Compounds 20–162 were evaluated in vitro for their effects on the viability of three cancer cell lines: HCT-116 (colon cancer), MCF-7 (breast cancer) and HeLa (cervical cancer), as well as the non-cancerous keratinocyte cell line (HaCaT). […] Analysis was performed using an MTT assay after 72 h of incubation.
(§1) Cell viability was examined using the MTT [3-(4,5-dimethylthiazol-2-yl)-2,5-diphenyltetrazolium bromide] assay. Cells were seeded in 96-well plates at a density of 3 × 10^3 cells/well and treated for 72 h with the tested compounds in the concentration range of 1–100 µM. Then, MTT (0.5 mg/mL) was added to the medium and cells were further incubated for 2 h at 37 °C. In the next stage, cells were lysed with DMSO and the absorbance of the formazan solution was measured at 550 nm with a plate reader (1420 multilabel counter, Victor, Jügesheim, Germany). The experiment was performed in triplicate. Values are expressed as the mean ± SD of at least three independent experiments. Cisplatin was used as a positive control.

[1] = system: HaCaT (human keratinocyte cell line); test: MTT cell viability assay, non-cancerous HaCaT; format: cell-based; details: 72 h of incubation, non-cancerous keratinocytes
Procedure, shortened: (§2)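 Cells in DMEM with 10% FBS, 3 × 10^3 per well, exposed to compounds at 1–100 µM for 72 h at 37 °C. MTT at 0.5 mg/mL for 2 h, formazan dissolved in DMSO and read at 550 nm. Mean ± SD of at least three independent experiments, each in triplicate.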

HeLa (cervical cancer) = test: MTT cell viability assay, HeLa; format: cell-based, human; details: for IC50: Homo sapiens, HeLa, MTT assay, 72 h of incubation
Procedure, shortened: (§3)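 HCT-116 and HeLa cells in DMEM/10% FBS exposed 72 h to compounds over 1–100 µM. Viability by MTT (0.5 mg/mL, 2 h, 37 °C), formazan dissolved in DMSO and read at 550 nm; mean ± SD of at least three independent experiments.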

MCF-7 (breast cancer) = test: MTT cell viability assay, MCF-7; format: cell-based, human; details: for IC50: MTT assay, 72 h of incubation
Procedure, shortened: as §2

HCT-116 (colon cancer) = test: MTT cell viability assay, HCT-116; format: cell-based, human; details: for IC50: Homo sapiens, HCT-116, 72 h, MTT assay, 72 h of incubation
Procedure, shortened: as §3

[2] = system: MCF7 (breast cancer cell line, ATCC, HTB-22); test: MTT assay, wild-type p53 breast cancer cells MCF-7 (Table 11); format: cell-based, human; details: 72 h of incubation, wild-type p53, second determination
Procedure: (§4) Thus, the ability of the selected compounds to exert cytotoxic activity toward cell lines harboring mutant p53 was examined. Compounds displaying a high selectivity index (Table 6) were selected for the analysis of their activity toward ovarian and breast cancer cells with wild-type p53 (A2780, MCF-7) and mutant p53 (SKOV-3, T47D).
as §1
(§5) Compounds 48, 62, 134, 138 and 140 were further examined toward MCF7 (breast cancer cell line, ATCC, HTB-22), T47D (breast cancer cell line, DSMZ ACC 739), A2780 (ovarian carcinoma cell line, ECACC, 93112519), and SKOV3 (ovarian carcinoma cell line, ATCC, HTB-77) cells. Cells were grown in Dulbecco’s Modified Eagle Medium (DMEM) supplemented with 10% fetal bovine serum (Thermo Fisher Scientific).

[3] = system: SKOV3 (ovarian carcinoma cell line); test: MTT assay, mutant p53 ovarian cancer cells SKOV-3; format: cell-based; details: 72 h of incubation
Procedure: as §4, §1, §5

[4] = system: T47D (breast cancer cell line); test: MTT assay, mutant p53 breast cancer cells T47D; format: cell-based; details: 72 h of incubation
Procedure: as §4, §1, §5

[5] = system: A2780 (ovarian carcinoma cell line); test: MTT assay, wild-type p53 ovarian cancer cells A2780; format: cell-based; details: 72 h of incubation
Procedure: as §4, §1, §5

Compound	IC50 ([1]; Homo sapiens, HaCaT, 72 h)	IC50 (HeLa (cervical cancer))	IC50 (MCF-7 (breast cancer); Homo sapiens, MCF7, 72 h)	IC50 (HCT-116 (colon cancer))	further results
Cc1ccc(S(=O)(=O)N2CCN(c3nc(N)nc(CSc4cc(Cl)c(C)cc4S(=O)(=O)N=C4NCCN4Cc4ccccc4)n3)CC2)cc1 [Compound 71]	27 ± 1 µM	265 ± 8 µM	205 ± 4 µM	155 ± 6 µM	cytotoxic activity for all tested cell lines (in words) (HCT-116, MCF-7 and HeLa): loss of activity
Cc1cc(S(=O)(=O)N=C2NCCN2Cc2ccccc2)c(SCc2nc(N)nc(N3CCN(c4ccc([N+](=O)[O-])cc4)CC3)n2)cc1Cl [Compound 67]	–	140 ± 7 µM	153 ± 5 µM	168 ± 8 µM	cytotoxic activity for all tested cell lines (in words) (HCT-116, MCF-7 and HeLa): inactive; also recorded: loss of activity
N.N.[Cl][Pt][Cl] [cisplatin, reference compound]	–	–	–	–	IC50 [2]: 3 ± 0.1 µM; IC50 [3]: 71 ± 0.1 µM; IC50 [1]: 7.7 ± 0.2 µM; IC50 [4]: 3.1 ± 0.1 µM; IC50 (MCF-7 (breast cancer)): 3 ± 0.1 µM; IC50 [5]: 1.4 ± 0.1 µM
Cc1cc(S(=O)(=O)N=C2NCCN2Cc2ccc(C(F)(F)F)cc2)c(SCc2nc(N)nc(N(C)C)n2)cc1Cl [Compound 118]	> 500 µM	115 ± 2 µM	10 ± 0.5 µM	105 ± 4 µM	cytotoxic activity for all tested cell lines (in words) (HCT-116, MCF-7 and HeLa): inactive
Cc1cc(S(=O)(=O)N=C2NCCN2Cc2ccccc2)c(SCc2nc(N)nc(N3CCN(S(=O)(=O)c4ccccc4)CC3)n2)cc1Cl [Compound 70]	–	550 ± 21 µM	490 ± 10 µM	300 ± 18 µM	cytotoxic activity for all tested cell lines (in words) (HCT-116, MCF-7 and HeLa): loss of activity
Cc1cc(S(=O)(=O)N=C2NCCN2)c(SCc2nc(N)nc(N3CCN(C)CC3)n2)cc1Cl [Compound 30]	–	153 ± 5 µM	145 ± 7 µM	170 ± 3 µM	cytotoxic activity for all tested cell lines (in words) (HCT-116, MCF-7 and HeLa): inactive
Cc1cc(S(=O)(=O)N=C2NCCN2Cc2cccc(C(F)(F)F)c2)c(SCc2nc(N)nc(N3CCN(c4ccc(Cl)c(Cl)c4)CC3)n2)cc1Cl [Compound 115]	23 ± 0.5 µM	12 ± 1 µM	6.5 ± 0.2 µM	5.5 ± 0.2 µM	–
Cc1cc(S(=O)(=O)N=C2NCCN2Cc2ccc(Br)cc2)c(SCc2nc(N)nc(Nc3ccccc3)n2)cc1Cl [Compound 104]	44 ± 2 µM	25 ± 1 µM	13 ± 0.4 µM	17 ± 1 µM	–
Cc1cc(S(=O)(=O)N=C2NCCN2)c(SCc2nc(N)nc(Nc3ccc(F)cc3)n2)cc1Cl [Compound 26]	45 ± 2 µM	34 ± 1 µM	33 ± 1 µM	33 ± 2 µM	–
Cc1cc(S(=O)(=O)N=C2NCCN2Cc2ccc(F)cc2)c(SCc2nc(N)nc(N3CCN(c4ccc(F)c(Cl)c4)CC3)n2)cc1Cl [Compound 99]	30 ± 1 µM	18 ± 0.5 µM	17 ± 1 µM	17 ± 1 µM	–
Cc1cc(S(=O)(=O)N=C2NCCN2Cc2ccccc2)c(SCc2nc(N)nc(N3CCN(c4ccc(F)cc4)CC3)n2)cc1Cl [Compound 58]	29 ± 1 µM	14 ± 2 µM	17 ± 1 µM	11 ± 0.3 µM	–
Cc1cc(S(=O)(=O)N=C2NCCN2Cc2ccc(Br)cc2)c(SCc2nc(N)nc(N3CCN(c4ccc(Cl)cc4)CC3)n2)cc1Cl [Compound 109]	55 ± 2 µM	36 ± 2 µM	22 ± 0.5 µM	23 ± 1 µM	–
Cc1cc(S(=O)(=O)N=C2NCCCN2Cc2ccc(C(F)(F)F)cc2)c(SCc2nc(N)nc(N3CCN(c4ccc(Cl)cc4)CC3)n2)cc1Cl [Compound 161]	27 ± 1 µM	14 ± 0.5 µM	6.5 ± 0.2 µM	6.5 ± 0.1 µM	–
Cc1cc(S(=O)(=O)N=C2NCCN2Cc2ccc(F)cc2)c(SCc2nc(N)nc(N3CCN(c4cccc(Cl)c4)CC3)n2)cc1Cl [Compound 97]	24 ± 1 µM	9 ± 0.3 µM	7 ± 0.4 µM	6 ± 0.2 µM	–
Cc1cc(S(=O)(=O)N=C2NCCN2Cc2ccccc2)c(SCc2nc(N)nc(N3CCN(c4ccccc4F)CC3)n2)cc1Cl [Compound 59]	30 ± 1 µM	15 ± 1 µM	18 ± 1 µM	13 ± 0.3 µM	–
Cc1cc(S(=O)(=O)N=C2NCCN2Cc2cc(C(F)(F)F)cc(C(F)(F)F)c2)c(SCc2nc(N)nc(N3CCC(Cc4ccccc4)CC3)n2)cc1Cl [Compound 157]	23 ± 1 µM	13 ± 0.5 µM	6 ± 0.3 µM	5 ± 0.1 µM	Selectivity Index (SI) HeLa (HeLa (cervical cancer); IC50 value toward HaCaT cells/IC50 value toward HeLa): 1.7; Selectivity Index (SI) MCF-7 (MCF-7 (breast cancer); IC50 value toward HaCaT cells/IC50 value toward MCF-7): 3.8; Selectivity Index (SI) HCT-116 (HCT-116 (colon cancer); IC50 value toward HaCaT cells/IC50 value toward HCT-116): 4.6
Cc1cc(S(=O)(=O)N=C2NCCN2Cc2cccc3ccccc23)c(SCc2nc(N)nc(N(C)c3ccc(Cl)cc3)n2)cc1Cl [Compound 76]	99 ± 4 µM	28 ± 2 µM	25 ± 1 µM	46 ± 1 µM	–
Cc1cc(S(=O)(=O)N=C2NCCN2Cc2ccccc2)c(SCc2nc(N)nc(Nc3ccc(C(F)(F)F)cc3)n2)cc1Cl [Compound 51]	220 ± 12 µM	15 ± 1 µM	10 ± 0.5 µM	19 ± 0.6 µM	–
COc1ccccc1N1CCN(c2nc(N)nc(CSc3cc(Cl)c(C)cc3S(=O)(=O)N=C3NCCN3)n2)CC1 [Compound 41]	51 ± 3 µM	39 ± 2 µM	46 ± 1 µM	21 ± 1 µM	–
Cc1cc(S(=O)(=O)N=C2NCCN2Cc2ccccc2)c(SCc2nc(N)nc(N(C)c3ccccc3)n2)cc1Cl [Compound 54]	28 ± 1 µM	16 ± 0.2 µM	12 ± 0.1 µM	11 ± 0.1 µM	–
Cc1cc(S(=O)(=O)N=C2NCCN2Cc2ccccc2)c(SCc2nc(N)nc(Nc3ccccc3)n2)cc1Cl [Compound 50]	51 ± 2 µM	35 ± 2 µM	43 ± 1 µM	18 ± 0.2 µM	–
Cc1cc(S(=O)(=O)N=C2NCCN2Cc2ccccc2)c(SCc2nc(N)nc(N3CCC(Cc4ccccc4)CC3)n2)cc1Cl [Compound 72]	28 ± 1 µM	17 ± 0.5 µM	9 ± 0.5 µM	6.5 ± 0.1 µM	–
Cc1cc(S(=O)(=O)N=C2NCCCN2Cc2ccc(C(F)(F)F)cc2)c(SCc2nc(N)nc(N3CCN(c4ccccc4)CC3)n2)cc1Cl [Compound 159]	29 ± 1 µM	15.5 ± 0.5 µM	10 ± 0.3 µM	9 ± 0.5 µM	–
